Drawing on PMC8949142 (2022), this text covers binding, KD and EC50 for 2 molecules.

In assay [1] the test system is G48nop (FAM) (DNA, aptamer) GCGACCGAAGTGAGGCTCGATCCAAGGTGGACGGGAGGTTGGATTGTGCGTG
In words: microscale thermophoresis. As to conditions: 100 mM Na+, 5 mM K+, 2 mM Mg2+, 1 mM Ca2+, 20 mM Tris-HCl pH 7.6, 0.02% Tween-20, 25 °C.

For assay [2], the system named is G48nop (DNA, aptamer) GCGACCGAAGTGAGGCTCGATCCAAGGTGGACGGGAGGTTGGATTGTGCGTG
The experiment in a line: biolayer interferometry. As to conditions: 100 mM Na+, 5 mM K+, 2 mM Mg2+, 1 mM Ca2+, 20 mM Tris-HCl pH 7.6. (BLI is a label-free optical method that tracks binding on a fibre tip over time.)

In assay [3] the test system is G48 (DNA, aptamer) GGGAGGACGAAGCGGAACGCGACCGAAGTGAGGCTCGATCCAAGGTGGACGGGAGGTTGGATTGTGCGTGCAGAAGACACGCCCGACA
In words: biolayer interferometry. The note with it: 100 mM Na+, 5 mM K+, 2 mM Mg2+, 1 mM Ca2+; 20 mM Tris-HCl pH 7.6; 1:1 fit.

The test system of assay [4] is G48nop (DNA, aptamer) GCGACCGAAGTGAGGCTCGATCCAAGGTGGACGGGAGGTTGGATTGTGCGTG
The experiment in a line: BLI aptasensor calibration, five-parameter logistic fit. The note with it: 100 mM Na+, 5 mM K+, 2 mM Mg2+, 1 mM Ca2+; 20 mM Tris-HCl pH 7.6; GYM-A 55–14,000 nM; slope exponent -0.7837.

The subject of assay [5] is G48norsj (DNA, aptamer) CGATCCAAGGTGGACGGGAGGTTGGATTG
The experiment in a line: biolayer interferometry. As to conditions: 100 mM Na+, 5 mM K+, 2 mM Mg2+, 1 mM Ca2+; 20 mM Tris-HCl pH 7.6; 1:1 fit.

The test system of assay [6] is G48nop (unlabeled) (DNA, aptamer) GCGACCGAAGTGAGGCTCGATCCAAGGTGGACGGGAGGTTGGATTGTGCGTG
The experiment in a line: circular dichroism. The note with it: 100 mM Na+, 5 mM K+, 2 mM Mg2+, 1 mM Ca2+; 20 mM Tris-HCl pH 7.6, 20 °C; 5 µM aptamer; qualitative. (In general: Circular dichroism is widely used to follow secondary structure.)

Assay [7] deals with G48nors (DNA, aptamer) TGAGGCTCGATCCAAGGTGGACGGGAGGTTGGATTGTGCGTG
In words: biolayer interferometry. The note with it: 100 mM Na+, 5 mM K+, 2 mM Mg2+, 1 mM Ca2+; 20 mM Tris-HCl pH 7.6; 1:1 fit.

Assay [8] concerns G16 (DNA, aptamer) GGGAGGACGAAGCGGAACCACCTTGAGATGAGGCTCGATCACCGGTGGGTATAGTGGTCGCGATGTATACCAGAAGACACGCCCGACA
In words: biolayer interferometry. As to conditions: 100 mM Na+, 5 mM K+, 2 mM Mg2+, 1 mM Ca2+; 20 mM Tris-HCl pH 7.6; 1:1 fit.

The subject of assay [9] is G29 (DNA, aptamer) GGGAGGACGAAGCGGAACCGTAGGAAAGTGAGGCTCGATCTACCCTTGGATCGATTTGTCAGGTGGGGACCAGAAGACACGCCCGACA
In words: biolayer interferometry. As to conditions: 100 mM Na+, 5 mM K+, 2 mM Mg2+, 1 mM Ca2+; 20 mM Tris-HCl pH 7.6; 1:1 fit.

The test system of assay [10] is G24 (DNA, aptamer) GGGAGGACGAAGCGGAACGGGCGGGATTTGAGGCTCGATCCGACTACGGATACGGCTTGCTTGTATCCGCCAGAAGACACGCCCGACA
The experiment in a line: biolayer interferometry. As to conditions: 100 mM Na+, 5 mM K+, 2 mM Mg2+, 1 mM Ca2+; 20 mM Tris-HCl pH 7.6; 1:1 fit.

Assay [11] has as its system control (random) sequence (FAM) (DNA, single strand) GAGCCTTAGCAGCACTTCACACGATCCACCCTTAAGGCCAACCTTAACACGACCTCAAACACTGCGTAATGACTGTAGTGATGCCTTA
The experiment in a line: microscale thermophoresis. As to conditions: 100 mM Na+, 5 mM K+, 2 mM Mg2+, 1 mM Ca2+; 20 mM Tris-HCl pH 7.6, 0.02% Tween-20, 25 °C; GYM-A up to 10,000 nM; not fittable. For orientation: Microscale thermophoresis detects binding through changes in fluorescence in a small temperature gradient.

For assay [12], the system named is G13 (DNA, aptamer) GGGAGGACGAAGCGGAACCCATGGGGTGTGAGGCTCGATCAGGAGGTAAAAGCAGCGCGTCGTCAGTGTGCAGAAGACACGCCCGACA
In words: biolayer interferometry. The note with it: 100 mM Na+, 5 mM K+, 2 mM Mg2+, 1 mM Ca2+; 20 mM Tris-HCl pH 7.6; 1:1 fit.

Assay [13] has as its system random sequence (control) (DNA, single strand) GAGCCTTAGCAGCACTTCACACGATCCACCCTTAAGGCCAACCTTAACACGACCTCAAACACTGCGTAATGACTGTAGTGATGCCTTA
The experiment in a line: biolayer interferometry. The note with it: 100 mM Na+, 5 mM K+, 2 mM Mg2+, 1 mM Ca2+; 20 mM Tris-HCl pH 7.6; tested at 0.5 µM.

Assay [14] deals with G79 (DNA, aptamer) GGGAGGACGAAGCGGAACGGGGGTGGGTTGAGGCTCGATCATGATAGCGAATTGGACACGATTCGTGTACCAGAAGACACGCCCGACA
In words: biolayer interferometry. As to conditions: 100 mM Na+, 5 mM K+, 2 mM Mg2+, 1 mM Ca2+; 20 mM Tris-HCl pH 7.6; 1:1 fit.

On to `C=C1[C@@H](O)[C@@H]2O[C@]3(CC[C@H](/C=C/[C@@H](C)[C@@H]4CC(C)=C[C@@]5(O[C@H](C[C@@](C)(O)C(=O)O)CC[C@H]5O)O4)O3)CC[C@H]2O[C@@H]1[C@@H](O)C[C@H](C)[C@H]1O[C@@]2(CCCCO2)CC[C@H]1C`, for which the binding entry is “no” in assay [1] (NB [sic], highest concentration not stated) and “no” in assay [2] (tested up to 1.5 µM).
For `CC1=C[C@@H](C2=C(C)[C@@H]3/C=C(\C)[C@@H](O)CC[C@@H]4C[C@@H](C)[C@@H](O4)/C(C)=C/CCC4=NCCC[C@@]43CC2)OC1=O`, the KD (in general, the free concentration of one partner at which half of the binding sites on the other are occupied at equilibrium, for simple one-to-one binding) amounted to 0.288 µM in assay [3]; 0.501 µM in [5]; 0.354 µM in assay [7]; 0.495 µM in assay [8]; 0.0345 ± 0.00172 µM in assay [1]; 0.308 µM in assay [9]. Moreover, the KD is 0.0953 µM in assay [2] (1:1 fit), 0.859 µM in [10], 168,000 nM in [12] and 0.341 µM in assay [14]. Moreover, the half-maximal effective concentration (EC50) (as a rule, the concentration needed to bring the measured effect to its halfway point) in assay [4] was 3.316 µM. The binding result is on record as “yes” in assay [6], “no” in [11] and “no” in assay [13].
